According to patent publication US9738612B2, “Methylacryloyl benzimidazolone derivative and anti-tumour use thereof” (SHANGHAI NATURE STANDARD R&D AND BIOTECH CO., LTD, priority 2014, dated 2017):

Tests used:
Assay in all cases: Tumor-associated kinase inhibition test
Type in all cases: biochemical
Conditions in all cases: read-out: Inhibitory rate (%)
[1] = target: T1, ALK(h) (Homo sapiens, UniProt Q9UM73)
T1 construct: purchased Eurofins Pharma Discovery Services UK Limited (contract assay service)
Description: (§1) Eurofins Pharma Discovery Services UK Limited completed and reported this experiment.

[2] = target: T2, Abl(h) (Homo sapiens, UniProt P00519)
T2 construct: purchased Eurofins Pharma Discovery Services UK Limited (contract assay service)
Description: as §1

[3] = target: T3, Arg(h) (Homo sapiens, UniProt P42684)
T3 construct: purchased Eurofins Pharma Discovery Services UK Limited (contract assay service)
Description: as §1

[4] = target: T4, B-Raf(h) (Homo sapiens, UniProt P15056)
T4 construct: purchased Eurofins Pharma Discovery Services UK Limited (contract assay service)
Description: as §1

[5] = target: T5, CDK6/cyclinD3(h) (Homo sapiens, UniProt Q00534)
T5 construct: purchased Eurofins Pharma Discovery Services UK Limited (contract assay service)
Description: as §1

[6] = target: T6, CDK7/cyclinH/MAT1(h) (Homo sapiens, UniProt P50613)
T6 construct: purchased Eurofins Pharma Discovery Services UK Limited (contract assay service)
Description: as §1

[7] = target: T7, CaMKI(h) (Homo sapiens, UniProt Q14012)
T7 construct: purchased Eurofins Pharma Discovery Services UK Limited (contract assay service)
Description: as §1

[8] = target: T8, EphB2(h) (Homo sapiens, UniProt P29323)
T8 construct: purchased Eurofins Pharma Discovery Services UK Limited (contract testing)
Description: as §1

[9] = target: T9, EphB4(h) (Homo sapiens, UniProt P54760)
T9 construct: purchased Eurofins Pharma Discovery Services UK Limited (contract testing)
Description: as §1

[10] = target: T10, Flt3(h) (Homo sapiens, UniProt P36888)
T10 construct: purchased Eurofins Pharma Discovery Services UK Limited (contract testing)
Description: as §1

[11] = target: T11, Fyn(h) (Homo sapiens, UniProt P06241)
T11 construct: purchased Eurofins Pharma Discovery Services UK Limited (contract testing)
Description: as §1

[12] = target: T12, IKKα(h) (Homo sapiens, UniProt O15111)
T12 construct: purchased Eurofins Pharma Discovery Services UK Limited (contract testing)
Description: as §1

[13] = target: T13, IRAK1(h) (Homo sapiens, UniProt P51617)
T13 construct: purchased Eurofins Pharma Discovery Services UK Limited (contract testing)
Description: as §1

[14] = target: T14, Itk(h) (Homo sapiens, UniProt Q08881)
T14 construct: purchased Eurofins Pharma Discovery Services UK Limited (contract testing)
Description: as §1

[15] = target: T15, JNK2α2(h) (Homo sapiens, UniProt P45984)
T15 construct: purchased Eurofins Pharma Discovery Services UK Limited (contract testing)
Description: as §1

[16] = target: T16, KDR(h) (Homo sapiens, UniProt P35968)
T16 construct: purchased Eurofins Pharma Discovery Services UK Limited
Description: as §1

[17] = target: T17, MAPK1(h) (Homo sapiens, UniProt P27361)
T17 construct: purchased Eurofins Pharma Discovery Services UK Limited
Description: as §1

[18] = target: T18, MAPK2(h) (Homo sapiens, UniProt P28482)
T18 construct: purchased Eurofins Pharma Discovery Services UK Limited
Description: as §1

[19] = target: T19, MST2(h) (Homo sapiens, UniProt Q13188)
T19 construct: purchased Eurofins Pharma Discovery Services UK Limited
Description: as §1

[20] = target: T20, Met(h) (Homo sapiens, UniProt P08581)
T20 construct: purchased Eurofins Pharma Discovery Services UK Limited
Description: as §1

[21] = target: T21, PAR-1Bα(h) (Homo sapiens, UniProt Q7KZI7)
T21 construct: purchased Eurofins Pharma Discovery Services UK Limited
Description: as §1

[22] = target: T22, PDGFRα(h) (Homo sapiens, UniProt P16234)
T22 construct: purchased Eurofins Pharma Discovery Services UK Limited
Description: as §1

[23] = target: T23, PI3KC2γ(h) (Homo sapiens, UniProt O75747)
T23 construct: purchased Eurofins Pharma Discovery Services UK Limited (contract assay)
Description: as §1

[24] = target: T24, PI3Kinase(p110β/p85α)(h) (Homo sapiens, UniProt P42338)
T24 construct: purchased Eurofins Pharma Discovery Services UK Limited (contract assay)
Description: as §1

[25] = target: T25, PI3Kinase(p110δ/p85α)(h) (Homo sapiens, UniProt O00329)
T25 construct: purchased Eurofins Pharma Discovery Services UK Limited (contract assay)
Description: as §1

[26] = target: T26, PKBβ(h) (Homo sapiens, UniProt P31751)
T26 construct: purchased Eurofins Pharma Discovery Services UK Limited
Description: as §1

[27] = target: T27, PKCγ(h) (Homo sapiens, UniProt P05129)
T27 construct: purchased Eurofins Pharma Discovery Services UK Limited
Description: as §1

[28] = target: T28, PKCε(h) (Homo sapiens, UniProt Q02156)
T28 construct: purchased Eurofins Pharma Discovery Services UK Limited
Description: as §1

[29] = target: T29, PKCζ(h) (Homo sapiens, UniProt Q05513)
T29 construct: purchased Eurofins Pharma Discovery Services UK Limited
Description: as §1

[30] = target: T30, PKCθ(h) (Homo sapiens, UniProt Q04759)
T30 construct: purchased Eurofins Pharma Discovery Services UK Limited
Description: as §1

[31] = target: T31, PKCι(h) (Homo sapiens, UniProt P41743)
T31 construct: purchased Eurofins Pharma Discovery Services UK Limited
Description: as §1

[32] = target: T32, PKCμ(h) (Homo sapiens, UniProt Q15139)
T32 construct: purchased Eurofins Pharma Discovery Services UK Limited
Description: as §1

[33] = target: T33, PRAK(h) (Homo sapiens, UniProt Q8IW41)
T33 construct: purchased Eurofins Pharma Discovery Services UK Limited
Description: as §1

[34] = target: T34, PRK2(h) (Homo sapiens, UniProt Q16513)
T34 construct: purchased Eurofins Pharma Discovery Services UK Limited
Description: as §1

[35] = target: T35, Ret(h) (Homo sapiens, UniProt P07949)
T35 construct: purchased Eurofins Pharma Discovery Services UK Limited
Description: as §1

[36] = target: T36, Ron(h) (Homo sapiens, UniProt Q04912)
T36 construct: purchased Eurofins Pharma Discovery Services UK Limited
Description: as §1

[37] = target: T37, Rsk1(h) (Homo sapiens, UniProt Q15418)
T37 construct: purchased Eurofins Pharma Discovery Services UK Limited
Description: as §1

[38] = target: T38, Rsk2(h) (Homo sapiens, UniProt P51812)
T38 construct: purchased Eurofins Pharma Discovery Services UK Limited
Description: as §1

[39] = target: T39, Tie2(h) (Homo sapiens, UniProt Q02763)
T39 construct: purchased Eurofins Pharma Discovery Services UK Limited
Description: as §1

[40] = target: T40, Yes(h) (Homo sapiens, UniProt P07947)
T40 construct: purchased Eurofins Pharma Discovery Services UK Limited
Description: as §1

T24 sequence (P42338 whole entry): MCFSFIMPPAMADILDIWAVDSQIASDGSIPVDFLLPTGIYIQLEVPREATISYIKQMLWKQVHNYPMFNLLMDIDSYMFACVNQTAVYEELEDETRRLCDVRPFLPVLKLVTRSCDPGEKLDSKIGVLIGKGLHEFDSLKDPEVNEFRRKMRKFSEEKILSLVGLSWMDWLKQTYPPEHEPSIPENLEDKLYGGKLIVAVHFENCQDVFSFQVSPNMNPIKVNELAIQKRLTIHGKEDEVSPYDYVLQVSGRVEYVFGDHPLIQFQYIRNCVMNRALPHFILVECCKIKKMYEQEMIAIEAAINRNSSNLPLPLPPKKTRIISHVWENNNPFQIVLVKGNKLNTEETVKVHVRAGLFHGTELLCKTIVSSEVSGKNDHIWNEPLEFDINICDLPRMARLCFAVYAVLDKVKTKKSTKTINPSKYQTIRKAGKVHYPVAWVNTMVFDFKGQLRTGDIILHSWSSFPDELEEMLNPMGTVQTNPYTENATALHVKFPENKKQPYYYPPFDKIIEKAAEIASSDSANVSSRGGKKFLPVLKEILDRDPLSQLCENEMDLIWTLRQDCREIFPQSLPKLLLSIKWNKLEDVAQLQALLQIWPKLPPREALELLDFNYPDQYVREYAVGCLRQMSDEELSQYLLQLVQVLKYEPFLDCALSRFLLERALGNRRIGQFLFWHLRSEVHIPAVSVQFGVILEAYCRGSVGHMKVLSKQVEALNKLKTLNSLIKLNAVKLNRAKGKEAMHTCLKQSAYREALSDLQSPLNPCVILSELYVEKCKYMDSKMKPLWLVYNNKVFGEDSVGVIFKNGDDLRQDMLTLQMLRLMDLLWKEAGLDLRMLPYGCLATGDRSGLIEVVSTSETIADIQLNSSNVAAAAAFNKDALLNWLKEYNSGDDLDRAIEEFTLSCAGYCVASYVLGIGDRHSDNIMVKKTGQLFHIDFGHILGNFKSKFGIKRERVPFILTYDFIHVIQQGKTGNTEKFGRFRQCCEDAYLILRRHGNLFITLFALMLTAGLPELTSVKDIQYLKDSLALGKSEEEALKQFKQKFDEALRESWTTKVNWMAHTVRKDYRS
T24 sequence (P27986 whole entry partner): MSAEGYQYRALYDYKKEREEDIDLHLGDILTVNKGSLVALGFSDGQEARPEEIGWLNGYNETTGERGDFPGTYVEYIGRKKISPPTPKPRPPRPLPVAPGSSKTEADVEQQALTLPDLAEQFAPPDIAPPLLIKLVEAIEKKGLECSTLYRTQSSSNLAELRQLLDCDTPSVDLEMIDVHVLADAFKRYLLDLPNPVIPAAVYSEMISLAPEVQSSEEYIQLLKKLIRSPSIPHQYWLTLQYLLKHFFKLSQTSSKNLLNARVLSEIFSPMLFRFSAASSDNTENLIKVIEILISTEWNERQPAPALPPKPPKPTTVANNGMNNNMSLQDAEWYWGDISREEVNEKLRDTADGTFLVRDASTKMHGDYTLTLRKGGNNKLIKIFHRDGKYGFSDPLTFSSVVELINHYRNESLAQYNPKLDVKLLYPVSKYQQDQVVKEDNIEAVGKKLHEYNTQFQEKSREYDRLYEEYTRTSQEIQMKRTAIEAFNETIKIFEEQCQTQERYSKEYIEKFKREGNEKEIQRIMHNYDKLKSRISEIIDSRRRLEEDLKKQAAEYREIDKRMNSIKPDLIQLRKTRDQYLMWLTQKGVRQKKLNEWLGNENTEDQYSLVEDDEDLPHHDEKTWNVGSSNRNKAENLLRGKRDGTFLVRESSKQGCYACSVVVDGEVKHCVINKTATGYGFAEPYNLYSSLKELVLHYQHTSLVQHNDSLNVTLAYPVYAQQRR
T25 sequence (O00329 whole entry): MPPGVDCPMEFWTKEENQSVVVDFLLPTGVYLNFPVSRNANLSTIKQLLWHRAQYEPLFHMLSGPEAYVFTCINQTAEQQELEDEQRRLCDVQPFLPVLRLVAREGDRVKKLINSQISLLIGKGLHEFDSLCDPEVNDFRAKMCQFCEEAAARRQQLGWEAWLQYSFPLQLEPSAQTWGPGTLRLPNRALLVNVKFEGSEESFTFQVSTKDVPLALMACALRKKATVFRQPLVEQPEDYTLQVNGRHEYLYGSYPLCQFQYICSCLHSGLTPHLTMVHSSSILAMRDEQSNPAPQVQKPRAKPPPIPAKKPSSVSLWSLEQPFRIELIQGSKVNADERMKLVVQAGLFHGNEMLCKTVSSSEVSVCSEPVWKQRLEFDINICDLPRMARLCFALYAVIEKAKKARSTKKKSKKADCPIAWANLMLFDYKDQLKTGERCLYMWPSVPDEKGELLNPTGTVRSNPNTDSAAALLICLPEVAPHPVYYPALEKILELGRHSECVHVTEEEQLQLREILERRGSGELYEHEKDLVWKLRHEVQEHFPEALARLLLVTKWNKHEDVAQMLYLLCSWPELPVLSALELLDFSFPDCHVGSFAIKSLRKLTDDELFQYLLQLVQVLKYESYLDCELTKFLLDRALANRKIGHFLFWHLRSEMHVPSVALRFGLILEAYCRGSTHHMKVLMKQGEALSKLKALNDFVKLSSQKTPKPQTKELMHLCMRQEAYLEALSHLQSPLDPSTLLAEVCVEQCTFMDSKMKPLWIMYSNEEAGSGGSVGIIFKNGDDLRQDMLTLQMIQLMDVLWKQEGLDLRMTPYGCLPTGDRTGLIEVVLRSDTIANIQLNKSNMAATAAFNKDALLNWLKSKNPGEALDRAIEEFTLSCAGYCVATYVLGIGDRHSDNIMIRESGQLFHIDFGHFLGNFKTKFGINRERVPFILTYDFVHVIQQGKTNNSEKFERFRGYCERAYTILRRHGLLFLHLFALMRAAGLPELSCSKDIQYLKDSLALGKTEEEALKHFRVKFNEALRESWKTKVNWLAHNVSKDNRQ
T25 sequence (P27986 whole entry partner): as the sequence (P27986 whole entry partner) above
T32 sequence (Q15139 whole entry): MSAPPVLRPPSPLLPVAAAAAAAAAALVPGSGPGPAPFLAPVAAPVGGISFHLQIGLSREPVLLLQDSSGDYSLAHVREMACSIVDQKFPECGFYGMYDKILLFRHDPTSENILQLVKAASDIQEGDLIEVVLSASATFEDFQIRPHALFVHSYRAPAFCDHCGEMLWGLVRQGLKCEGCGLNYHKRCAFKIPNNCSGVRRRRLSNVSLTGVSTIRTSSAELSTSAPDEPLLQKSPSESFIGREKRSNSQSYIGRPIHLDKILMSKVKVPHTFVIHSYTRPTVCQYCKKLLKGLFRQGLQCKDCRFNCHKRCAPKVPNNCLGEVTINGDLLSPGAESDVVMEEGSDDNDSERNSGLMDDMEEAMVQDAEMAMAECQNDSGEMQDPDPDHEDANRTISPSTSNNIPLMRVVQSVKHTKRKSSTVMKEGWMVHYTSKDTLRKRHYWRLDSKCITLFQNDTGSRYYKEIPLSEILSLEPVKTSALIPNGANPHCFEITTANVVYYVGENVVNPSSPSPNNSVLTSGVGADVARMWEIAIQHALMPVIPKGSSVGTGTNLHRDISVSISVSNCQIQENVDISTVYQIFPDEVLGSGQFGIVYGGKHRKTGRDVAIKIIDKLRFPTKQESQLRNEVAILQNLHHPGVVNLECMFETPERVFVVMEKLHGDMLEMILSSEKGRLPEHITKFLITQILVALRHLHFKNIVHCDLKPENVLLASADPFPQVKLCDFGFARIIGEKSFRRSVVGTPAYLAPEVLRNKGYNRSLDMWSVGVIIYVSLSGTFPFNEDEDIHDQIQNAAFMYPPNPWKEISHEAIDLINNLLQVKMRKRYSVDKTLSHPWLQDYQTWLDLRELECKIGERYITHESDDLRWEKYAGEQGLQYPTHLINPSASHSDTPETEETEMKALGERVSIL
T6 sequence (P50613 whole entry): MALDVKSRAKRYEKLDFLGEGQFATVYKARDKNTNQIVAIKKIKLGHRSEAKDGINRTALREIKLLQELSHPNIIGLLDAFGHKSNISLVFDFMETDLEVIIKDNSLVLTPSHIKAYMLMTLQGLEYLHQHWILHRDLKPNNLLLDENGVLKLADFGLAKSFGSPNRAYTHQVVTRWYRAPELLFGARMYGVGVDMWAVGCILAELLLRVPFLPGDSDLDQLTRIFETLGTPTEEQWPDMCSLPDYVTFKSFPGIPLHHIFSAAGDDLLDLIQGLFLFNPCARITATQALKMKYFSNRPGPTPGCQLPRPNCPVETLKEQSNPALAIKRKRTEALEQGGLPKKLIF
T6 sequence (P51946 whole entry partner): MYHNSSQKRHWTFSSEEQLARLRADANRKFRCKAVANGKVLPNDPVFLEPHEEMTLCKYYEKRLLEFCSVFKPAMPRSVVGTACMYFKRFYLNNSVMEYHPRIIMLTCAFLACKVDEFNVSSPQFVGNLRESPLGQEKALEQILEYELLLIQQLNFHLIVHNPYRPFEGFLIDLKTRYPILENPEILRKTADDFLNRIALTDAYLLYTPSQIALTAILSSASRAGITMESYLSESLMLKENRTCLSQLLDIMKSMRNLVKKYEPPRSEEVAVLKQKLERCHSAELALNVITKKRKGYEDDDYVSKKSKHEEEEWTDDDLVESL
T6 sequence (P51948 whole entry partner): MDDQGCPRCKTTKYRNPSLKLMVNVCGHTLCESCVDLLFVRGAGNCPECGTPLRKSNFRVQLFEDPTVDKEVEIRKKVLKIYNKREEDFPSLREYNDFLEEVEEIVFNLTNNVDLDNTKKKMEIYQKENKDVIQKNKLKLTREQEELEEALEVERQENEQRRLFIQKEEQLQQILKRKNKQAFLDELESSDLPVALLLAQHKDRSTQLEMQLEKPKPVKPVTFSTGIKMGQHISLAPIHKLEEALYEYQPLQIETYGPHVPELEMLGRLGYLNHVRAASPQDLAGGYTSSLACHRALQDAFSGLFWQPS

inhibition at 10 µM [1]: 16% | inhibition at 10 µM [2]: 2% | inhibition at 10 µM [3]: -7% | inhibition at 10 µM [4]: -6% | inhibition at 10 µM [5]: -1% | inhibition at 10 µM [6]: -8% | inhibition at 10 µM [7]: -1% | inhibition at 10 µM [8]: 7% | inhibition at 10 µM [9]: -8% | inhibition at 10 µM [10]: 4% | inhibition at 10 µM [11]: 2% | inhibition at 10 µM [12]: 5% | inhibition at 10 µM [13]: 9% | inhibition at 10 µM [14]: -7% | inhibition at 10 µM [15]: 3% | inhibition at 10 µM [16]: -1% | inhibition at 10 µM [17]: 8% | inhibition at 10 µM [18]: -6% | inhibition at 10 µM [19]: 1% | inhibition at 10 µM [20]: -9% | inhibition at 10 µM [21]: 6% | inhibition at 10 µM [22]: -9% | inhibition at 10 µM [23]: 3% | inhibition at 10 µM [24]: -3% | inhibition at 10 µM [25]: 3% | inhibition at 10 µM [26]: 4% | inhibition at 10 µM [27]: 11% | inhibition at 10 µM [28]: -1% | inhibition at 10 µM [29]: 5% | inhibition at 10 µM [30]: -3% | inhibition at 10 µM [31]: 11% | inhibition at 10 µM [32]: 6% | inhibition at 10 µM [33]: 10% | inhibition at 10 µM [34]: -9% | inhibition at 10 µM [35]: 7% | inhibition at 10 µM [36]: 8% | inhibition at 10 µM [37]: 9% | inhibition at 10 µM [38]: 4% | inhibition at 10 µM [39]: 14% | inhibition at 10 µM [40]: -2%
Compound: C=C(C)n1c(=O)n(C(C)=O)c2ncc(Br)cc21 [FD162]
